Assay results: ChEMBL document CHEMBL6074662, “Antibacterial, Antibiofilm, and Anti-inflammatory Effects of a Novel Thrombin-Derived Peptide in Sepsis Models: Insights into Underlying Mechanisms” (J Med Chem, 2024)
Activity calls are given as the source filed them. The rule behind the calls is not given here.

Assays:
[1] = tested on: Escherichia coli; assay: Antibacterial activity against Escherichia coli KCTC 1682 assessed as zone of clearance incubated for 4 hrs in presence of proteinase K by radical diffusion assay; format: functional, organism-based
[2] = tested on: Escherichia coli; assay: Antibacterial activity against Escherichia coli KCTC 1682 assessed as zone of clearance incubated for 4 hrs in presence of pepsin by radical diffusion assay; format: functional, organism-based
[3] = tested on: Mus musculus; assay: (§1) Antiseptic activity in sepsis shock ICR mouse model infected with carbapenem-resistant Acinetobacter baumannii assessed as reduction in bacterial count in lungs at 1 mg/kg, ip pre-infected with bacteria followed by compound administration 1 hr post-infection measured after 16 hrs relative to control; format: functional; design: scale not given: the % may be the effect or the level left
[4] = tested on: Mus musculus; assay: (§2) Antiseptic activity in sepsis shock ICR mouse model infected with carbapenem-resistant Acinetobacter baumannii assessed as reduction in bacterial count in liver at 1 mg/kg, ip pre-infected with bacteria followed by compound administration 1 hr post-infection measured after 16 hrs relative to control; format: functional; design: scale not given: the % may be the effect or the level left
[5] = species on record: Homo sapiens; assay: Binding affinity to CM5 chip-immobilized TLR4/MD2 (unknown origin) complex by SPR analysis
[6] = tested on: Mus musculus; assay: Antiseptic activity in sepsis shock ICR mouse model infected with carbapenem-resistant Acinetobacter baumannii assessed as reduction in bacterial count in liver at 1 mg/kg, ip pretreated with compound for 1 hr followed by bacterial infection measured after 16 hrs relative to control; format: functional; design: scale not given: the % may be the effect or the level left; conditions: time 17 hrs
[7] = biological target: Toll-like receptor 4 (Homo sapiens) (UniProt O00206); assay: Inhibition of LPS-induced human TLR4 activation expressed in HEK-Blue hTLR4 cells assessed as decrease in SEAP activity at 25 uM pretreated for 1 hr followed by LPS treatment for 16 hrs by absorbance based assay relative to control; format: cell-based; conditions: time 17.0 hrs
Toll-like receptor 4 (Homo sapiens), sequence (O00206 whole entry): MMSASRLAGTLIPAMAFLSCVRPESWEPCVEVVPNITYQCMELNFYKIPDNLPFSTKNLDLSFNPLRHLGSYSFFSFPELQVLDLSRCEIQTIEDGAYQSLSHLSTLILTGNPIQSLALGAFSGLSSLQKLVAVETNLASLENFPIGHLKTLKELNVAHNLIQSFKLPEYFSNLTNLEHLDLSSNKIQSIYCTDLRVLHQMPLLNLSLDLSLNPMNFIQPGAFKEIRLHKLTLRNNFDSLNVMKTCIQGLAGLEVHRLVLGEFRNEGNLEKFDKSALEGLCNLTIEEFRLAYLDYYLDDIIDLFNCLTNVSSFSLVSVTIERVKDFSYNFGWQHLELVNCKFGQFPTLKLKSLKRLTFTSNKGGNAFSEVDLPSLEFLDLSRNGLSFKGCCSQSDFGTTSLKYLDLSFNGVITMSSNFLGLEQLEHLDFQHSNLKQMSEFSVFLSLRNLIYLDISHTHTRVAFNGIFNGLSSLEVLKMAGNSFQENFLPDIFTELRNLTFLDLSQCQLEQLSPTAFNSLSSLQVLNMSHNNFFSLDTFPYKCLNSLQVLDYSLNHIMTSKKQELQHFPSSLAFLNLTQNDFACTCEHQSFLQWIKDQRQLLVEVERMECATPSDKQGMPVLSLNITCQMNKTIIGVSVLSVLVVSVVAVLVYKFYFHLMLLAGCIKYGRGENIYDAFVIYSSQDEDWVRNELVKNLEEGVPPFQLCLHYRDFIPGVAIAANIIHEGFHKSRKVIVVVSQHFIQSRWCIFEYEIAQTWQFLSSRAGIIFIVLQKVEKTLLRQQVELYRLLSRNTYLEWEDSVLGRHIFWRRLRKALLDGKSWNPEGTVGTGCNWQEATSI

[8] = tested on: Pseudomonas aeruginosa; assay: Bactericidal activity against multidrug-resistant Pseudomonas aeruginosa CCARM 2095 at 0.5 to 2 uM incubated for 12 hrs by time-kill assay; format: functional, organism-based; conditions: dose 0.5-2 µM
[9] = tested on: Lipopolysaccharide (LPS); assay: Displacement of BODIPY-TR-cadaverine from Escherichia coli 0111:B4 LPS at 16 uM incubated for 30 mins by fluorescence based assay relative to control
[10] = tested on: Mus musculus; assay: Antiseptic activity in sepsis shock ICR mouse model infected with carbapenem-resistant Acinetobacter baumannii assessed as reduction in serum IL-6 level at 1 mg/kg, ip pre-infected with bacteria followed by compound administration 1 hr post-infection measured after 16 hrs relative to control; format: functional; design: scale not given: the % may be the effect or the level left
[11] = tested on: Lipopolysaccharide (LPS); assay: Displacement of BODIPY-TR-cadaverine from cell-free LPS (unknown origin) incubated for 30 mins by fluorescence based assay; conditions: dose <= 32.0 µM
[12] = tested on: Mus musculus; assay: as §1, with “3 hrs” for “1 hr”; format: functional; design: scale not given: the % may be the effect or the level left
[13] = tested on: Acinetobacter baumannii; assay: Antibacterial activity against carbapenem-resistant Acinetobacter baumannii 1707 incubated for 24 hrs by CLSI based broth microdilution method; format: functional, organism-based
[14] = tested on: Mus musculus; assay: as §1, with “kidney” for “lungs”, “3 hrs” for “1 hr”; format: functional; design: scale not given: the % may be the effect or the level left
[15] = tested on: Mus musculus; assay: Antiseptic activity in sepsis shock ICR mouse model infected with carbapenem-resistant Acinetobacter baumannii assessed as reduction in serum IL-6 level at 1 mg/kg, ip pretreated with compound for 3 hrs followed by bacterial infection measured after 16 hrs relative to control; format: functional; design: scale not given: the % may be the effect or the level left; conditions: time 19 hrs
[16] = tested on: Acinetobacter baumannii; assay: Antibacterial activity against carbapenem-resistant Acinetobacter baumannii-induced sepsis shock in ICR mouse model assessed as bacterial growth inhibition in kidney at 1 mg/kg, ip pretreated with compound for 1 hr followed by bacterial infection measured after 16 hrs relative to control; format: functional; conditions: time 17 hrs
[17] = tested on: Mus musculus; assay: as §2, with “3 hrs” for “1 hr”; format: functional; design: scale not given: the % may be the effect or the level left
[18] = tested on: Mus musculus; assay: Antiseptic activity in sepsis shock ICR mouse model infected with carbapenem-resistant Acinetobacter baumannii assessed as decrease in TNF-alpha level in serum at 1 mg/kg, ip pretreated with compound for 1 hr followed by bacterial infection measured after 16 hrs relative to control; format: functional; design: scale not given: the % may be the effect or the level left; conditions: time 17 hrs
[19] = biological target: T1, Toll-like receptor 4 (Mus musculus) (UniProt Q9QUK6); assay: Inhibition of LPS-induced TLR4 activation in mouse RAW264.7 cells assessed as decrease in JNK phosphorylation at 2 uM pretreated for 1 hr followed by LPS treatment for 30 mins by Western blot analysis relative to control; format: cell-based; conditions: time 90.0 min
T1 sequence (whole entry): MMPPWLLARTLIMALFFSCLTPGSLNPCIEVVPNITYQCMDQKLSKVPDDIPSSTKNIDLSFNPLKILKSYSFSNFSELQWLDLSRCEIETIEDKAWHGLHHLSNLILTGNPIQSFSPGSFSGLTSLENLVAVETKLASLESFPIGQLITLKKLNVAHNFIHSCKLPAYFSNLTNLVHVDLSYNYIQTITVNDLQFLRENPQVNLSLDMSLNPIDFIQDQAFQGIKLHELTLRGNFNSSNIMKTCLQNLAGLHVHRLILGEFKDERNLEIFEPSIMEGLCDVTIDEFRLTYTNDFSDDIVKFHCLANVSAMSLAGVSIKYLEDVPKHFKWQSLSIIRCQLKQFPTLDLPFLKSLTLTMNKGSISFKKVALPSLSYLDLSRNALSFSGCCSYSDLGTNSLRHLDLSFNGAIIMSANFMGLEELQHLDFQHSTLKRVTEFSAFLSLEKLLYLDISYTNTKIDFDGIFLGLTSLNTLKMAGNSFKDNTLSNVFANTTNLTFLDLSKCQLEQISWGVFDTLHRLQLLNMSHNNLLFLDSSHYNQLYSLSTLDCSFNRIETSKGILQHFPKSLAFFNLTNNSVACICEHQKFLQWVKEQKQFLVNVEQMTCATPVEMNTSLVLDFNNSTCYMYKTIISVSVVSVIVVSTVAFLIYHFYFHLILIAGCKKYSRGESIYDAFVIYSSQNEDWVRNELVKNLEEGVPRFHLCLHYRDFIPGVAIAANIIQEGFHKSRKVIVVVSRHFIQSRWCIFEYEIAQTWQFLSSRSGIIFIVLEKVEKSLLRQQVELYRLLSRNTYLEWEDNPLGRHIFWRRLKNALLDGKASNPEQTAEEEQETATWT

[20] = tested on: Mus musculus; assay: Antiseptic activity in sepsis shock ICR mouse model infected with carbapenem-resistant Acinetobacter baumannii assessed as decrease in ALT level in serum at 1 mg/kg, ip pretreated with compound for 1 hr followed by bacterial infection measured after 16 hrs relative to control; format: functional; design: scale not given: the % may be the effect or the level left; conditions: time 17 hrs
[21] = tested on: Lipopolysaccharide (LPS); assay: Displacement of BODIPY-TR-cadaverine from Escherichia coli 0111:B4 LPS at 8 uM incubated for 30 mins by fluorescence based assay relative to control
[22] = tested on: Mus musculus; assay: Antiseptic activity in sepsis shock ICR mouse model infected with carbapenem-resistant Acinetobacter baumannii assessed as reduction in bacterial count in liver at 1 mg/kg, ip pretreated with compound for 3 hrs followed by bacterial infection measured after 16 hrs relative to control; format: functional; design: scale not given: the % may be the effect or the level left; conditions: time 19 hrs
[23] = tested on: Mus musculus; assay: Antiseptic activity in sepsis shock ICR mouse model infected with carbapenem-resistant Acinetobacter baumannii assessed as reduction in bacterial count in kidney at 1 mg/kg, ip pretreated with compound for 3 hrs followed by bacterial infection measured after 16 hrs relative to control; format: functional; design: scale not given: the % may be the effect or the level left; conditions: time 19 hrs

H-GVFRLKKWIKKVIKKWGK-NH2
Activity [1]: inactive | Activity [2]: inactive

H-GVFRLKKWLKKVKKWGK-NH2
Activity [3]: 92.3% | Activity [4]: 97.7% | Activity [5]: 9.4 10^-7M | Activity [6]: 99.7% | inhibition [7]: 100% | Activity [8]: inactive | Activity [9]: 75% | Activity [10]: 97.9% | Activity [11]: Dose-dependent-effect; Activity Similar To Ll-37 | Activity [12]: 25% | Activity [13]: Active | Activity [14]: 91.8% | Activity [15]: 99.9% | inhibition in vivo at 1 mg/kg [16]: 88.1% | Activity [17]: 90.7% | Activity [18]: 49.4% | inhibition [19]: 52% | Activity [20]: 67.8% | Activity [21]: 38% | Activity [22]: 99.4% | Activity [23]: 98.5%
